Test [1] can be described thus: Study testing increased arginine in gametophyte medium. The note with it: in vivo. The source says: Aside from the signaling evidence from the literature, the effect of isomaltulose is not thought to be simply from additional osmoticant because higher osmolality medium would drive the water potential gradient further in the direction of the gametophyte, not toward the embryo.

Test [2] deals with embryos dissected from natural loblolly pine seed. Kind of test: Germination of loblolly pine embryos in manufactured seed, sucrose/isomaltulose gametophyte media (Example 2). It counts as in vivo. To be noted: relative to 20 sucrose.
Text: Normal (germination score): Fully extracted out of seed with no malformation (epicotyl optional for fully extracted). OR partial germinant with epicotyl out of cavity and all organs—No Malformations present. Root length of at least 3.0 mm.
Partial Normal (germination score): Not fully emerged, partial germinant with no epicotyl and no malformations. Root length of at least 3.0 mm.
Not normal (germination score): Malformed partial germinants, lacking organs, roots less than 3 mm, any upside down or twisted germinant, or germinated and died as evidenced by lid penetration but no germinant present.
Manufactured seeds were prepared with KE 64 agar nutritive medium, as shown below in Table 1, with sucrose (50 g/L), agar (18 g/L to 26 g/L), nutrient-loaded charcoal (60 g/L) and Pluronic F68 (10 g/L).
The germination rate may be measured and the normalcy of the germinants may also be assessed. A “normal germinant” or “normalcy” denotes the presence of all expected parts of a plant at time of evaluation. In the case of gymnosperms, normalcy is characterized by the radicle having a length greater than 3 mm and no visibly discernable malformations compared to the appearance of embryos germinated from natural seed. “Not normal” means tissue on at least one organ is swollen, and the root and cotyledons are dead. […]
Test [3] relates to alkaline and acid invertases. To be noted: cut potato tubers; cited from earlier work.
The next test relates to developing embryo. Nature of the test: Earlier sucrose level study in manufactured seed (FIG. 2, 3). It counts as in vivo. The source says:
Higher water potential with relation to lower sucrose levels (solute concentration) was previously purported to increase flooding in gametophyte seed cavities. […] Because of the flooding problem, this study could have selected for those treatments that had the most rapid lid penetration, which would allow embryos to escape the flooded seed environment.

The subject of a further test is embryos. Nature of the test: Lower sucrose concentrations study (15, 25, 35 and 50 g/l; FIG. 4-6). The test is classed as in vivo. The source says: Organ lengths were also a factor with relation to sucrose concentrations. It was hypothesized that lower sucrose concentrations would affect root lengths and indeed the lower sucrose treatments produced shorter root lengths as compared to the highest group 50 g/l sucrose (FIG. 4). […] After observing sufficient lid penetration, seed were transferred from boxes to sterile sand.

Consider `N=C(N)NCCC[C@H](N)C(=O)O` [arginine], for which, in test [1], the “performance with increased arginine” value is given as “reduced performance at higher levels”.

For the compound `O=C(CO)[C@@H](O)[C@H](O)[C@H](O)CO[C@H]1O[C@H](CO)[C@@H](O)[C@H](O)[C@H]1O` [isomaltulose, 6-O-α-d-glucopyranosyl-D-fructose], in test [2], the lateral roots result was “significantly improved lateral root presence”. For the same compound, in test [3], the “isomaltulose concentration at peak acid invertase activity” value is on record as 20 mM and the “isomaltulose concentration at peak alkaline invertase activity” value was 50 mM.

Regarding `OC[C@H]1O[C@@](CO)(O[C@H]2O[C@H](CO)[C@@H](O)[C@H](O)[C@H]2O)[C@@H](O)[C@@H]1O` [sucrose], the organ lengths result in the test with developing embryo (FIG. 2) was “increased with sucrose at 50 g/l and greater”. Besides, the normalcy entry with developing embryo (FIG. 3) is “decreased with increasing sucrose concentration”; with embryos (after germination in sand, FIG. 6), “normalcy increasing with higher sucrose concentrations”. Also, in the test with embryos (FIG. 4), the root length result is given as “increased root length with relation to rising sucrose levels”. Also, the embryo activity result with embryos (day 5, FIG. 5) is “Lower concentrations of sucrose gave the highest yield of embryo activity”.
